Source: US12257224B2, “Methods of administration for highly water-soluble salts of a short acting phenylalkylamine calcium channel blocker” (Milestone Pharmaceuticals Inc., priority 2021, dated 2025)
Where two headings read alike, the source gives them in different places.

Columns and labels:
[1] = tested on: induced PSVT; experiment: Phase 2 study: termination of induced PSVT; assay type: in vivo, human; settings: for mean reduction in systolic blood pressure (SBP) versus baseline: between 4 and 10 minutes after administration
Protocol: In a Phase 2 study, four doses (35, 70, 105, and 140 mg) were tested.

[2] = Example 7: PK analysis, serum concentration after one vs two 70 mg nasal doses; assay type: in vivo, human; design: serum concentration, Median: unit not given here; settings: for concentration at 13 min / concentration at 15 min: human, serum, other: nasal
Protocol: The serum concentration of compound I over time from the first administration for the study arm with a single 70 mg dose administration of compound I was compared with the study arm with two 70 mg dose administrations of compound I. The second 70 mg dose of compound I was administered approximately 10 minutes after the first dose.

[3] = one 70 mg nasal dose, Time 10.5
[4] = one 70 mg nasal dose, Time 11.5
[5] = one 70 mg nasal dose, Time 1450
[6] = two 70 mg nasal doses, second approximately 10 minutes after first, Time 7
[7] = two 70 mg nasal doses, second approximately 10 minutes after first, Time 9
[8] = two 70 mg nasal doses, second approximately 10 minutes after first, Time 10.5
[9] = two 70 mg nasal doses, second approximately 10 minutes after first, Time 11.5

COC(=O)c1cccc(CCN(C)CCCC(C#N)(c2ccc(OC)c(OC)c2)C(C)C)c1 (stereo not drawn) [compound I, methyl 3-(2-((4-cyano-4-(3,4-dimethoxyphenyl)-5-methylhexyl)(methyl)amino)ethyl)benzoate]
overall success rate ([1]; 35 mg, at 15 minutes): 65%
treatment effect compared to placebo ([1]; 35 mg, at 15 minutes): 30%
mean reduction in systolic blood pressure (SBP) versus baseline ([1]; 105 mg): 11.4%
mean reduction in systolic blood pressure (SBP) versus baseline ([1]; 140 mg): 15.6%
termination of induced PSVT within 15 minutes of dosing ([1]; 70, 105 and 140 mg vs placebo): statistically significantly superior compared with placebo
time to conversion of PSVT to sinus rhythm (SR) ([1]; 70, 105 and 140 mg vs placebo): shorter
tolerability ([1]; NS 70 mg): well tolerated
mean SBP ([1]; doses of 35 and 70 mg): did not drop
concentration at 13 min ([2]; two 70 mg nasal doses, second approximately 10 minutes after first, Time 13, read-out: serum concentration, Max): 320 ng/mL
concentration at 13 min ([2]; two 70 mg nasal doses, second approximately 10 minutes after first, Time 13, read-out: serum concentration, Mean): 115 ng/mL
concentration at 13 min ([2]; two 70 mg nasal doses, second approximately 10 minutes after first, Time 13, read-out: serum concentration, Median): 93.6 ng/mL
concentration at 13 min ([2]; two 70 mg nasal doses, second approximately 10 minutes after first, Time 13, read-out: serum concentration, Min): 22.5 ng/mL
concentration at 15 min ([2]; two 70 mg nasal doses, second approximately 10 minutes after first, Time 15, read-out: serum concentration, Max): 317 ng/mL
concentration at 15 min ([2]; two 70 mg nasal doses, second approximately 10 minutes after first, Time 15, read-out: serum concentration, Mean): 110 ng/mL
concentration at 15 min ([2]; two 70 mg nasal doses, second approximately 10 minutes after first, Time 15, read-out: serum concentration, Median): 76.9 ng/mL
concentration at 15 min ([2]; two 70 mg nasal doses, second approximately 10 minutes after first, Time 15, read-out: serum concentration, Min): 25.2 ng/mL
serum concentration, Max ([2]; one 70 mg nasal dose, Time 0): 0 ng/mL
serum concentration, Mean ([2]; one 70 mg nasal dose, Time 0): 0.00
serum concentration, Median ([2]; one 70 mg nasal dose, Time 0): 0.00
serum concentration, Min ([2]; one 70 mg nasal dose, Time 0): 0.00
serum concentration, Max ([2]; one 70 mg nasal dose, Time 0.5): 0 ng/mL
serum concentration, Mean ([2]; one 70 mg nasal dose, Time 0.5): 0.00
serum concentration, Median ([2]; one 70 mg nasal dose, Time 0.5): 0.00
serum concentration, Min ([2]; one 70 mg nasal dose, Time 0.5): 0.00
serum concentration, Mean ([2]; one 70 mg nasal dose, Time 1.5): 11.79
serum concentration, Median ([2]; one 70 mg nasal dose, Time 1.5): 5.20
serum concentration, Min ([2]; one 70 mg nasal dose, Time 1.5): 0.00
serum concentration, Max ([2]; one 70 mg nasal dose, Time 1.5, in ng/mL): 56.12
serum concentration, Mean ([2]; one 70 mg nasal dose, Time 3): 62.82
serum concentration, Median ([2]; one 70 mg nasal dose, Time 3): 32.60
serum concentration, Min ([2]; one 70 mg nasal dose, Time 3): 11.45
serum concentration, Max ([2]; one 70 mg nasal dose, Time 3, in ng/mL): 205.27
serum concentration, Mean ([2]; one 70 mg nasal dose, Time 5): 90.64
serum concentration, Median ([2]; one 70 mg nasal dose, Time 5): 67.70
serum concentration, Min ([2]; one 70 mg nasal dose, Time 5): 21.18
serum concentration, Max ([2]; one 70 mg nasal dose, Time 5, in ng/mL): 191.63
serum concentration, Mean ([2]; one 70 mg nasal dose, Time 7): 83.04
serum concentration, Median ([2]; one 70 mg nasal dose, Time 7): 74.22
serum concentration, Min ([2]; one 70 mg nasal dose, Time 7): 28.61
serum concentration, Max ([2]; one 70 mg nasal dose, Time 7, in ng/mL): 152.59
serum concentration, Mean ([2]; one 70 mg nasal dose, Time 9): 73.39
serum concentration, Median ([2]; one 70 mg nasal dose, Time 9): 69.68
serum concentration, Min ([2]; one 70 mg nasal dose, Time 9): 25.94
serum concentration, Max ([2]; one 70 mg nasal dose, Time 9, in ng/mL): 130.50
serum concentration, Mean [2, 3]: 67.95
serum concentration, Median [2, 3]: 59.91
serum concentration, Min [2, 3]: 30.24
serum concentration, Max ([2]; one 70 mg nasal dose, Time 10.5, in ng/mL): 121.45
serum concentration, Mean [2, 4]: 66.91
serum concentration, Median [2, 4]: 59.09
serum concentration, Min [2, 4]: 31.61
serum concentration, Max ([2]; one 70 mg nasal dose, Time 11.5, in ng/mL): 119.67
serum concentration, Mean ([2]; one 70 mg nasal dose, Time 13): 62.34
serum concentration, Median ([2]; one 70 mg nasal dose, Time 13): 59.07
serum concentration, Min ([2]; one 70 mg nasal dose, Time 13): 29.29
serum concentration, Max ([2]; one 70 mg nasal dose, Time 13, in ng/mL): 103.40
serum concentration, Mean ([2]; one 70 mg nasal dose, Time 15): 57.44
serum concentration, Median ([2]; one 70 mg nasal dose, Time 15): 52.11
serum concentration, Min ([2]; one 70 mg nasal dose, Time 15): 26.98
serum concentration, Max ([2]; one 70 mg nasal dose, Time 15, in ng/mL): 111.44
serum concentration, Mean ([2]; one 70 mg nasal dose, Time 17): 50.32
serum concentration, Median ([2]; one 70 mg nasal dose, Time 17): 41.80
serum concentration, Min ([2]; one 70 mg nasal dose, Time 17): 26.92
serum concentration, Max ([2]; one 70 mg nasal dose, Time 17, in ng/mL): 90.05
serum concentration, Mean ([2]; one 70 mg nasal dose, Time 20): 49.43
serum concentration, Median ([2]; one 70 mg nasal dose, Time 20): 46.51
serum concentration, Min ([2]; one 70 mg nasal dose, Time 20): 22.74
serum concentration, Max ([2]; one 70 mg nasal dose, Time 20, in ng/mL): 80.55
serum concentration, Mean ([2]; one 70 mg nasal dose, Time 25): 41.86
serum concentration, Median ([2]; one 70 mg nasal dose, Time 25): 42.30
serum concentration, Min ([2]; one 70 mg nasal dose, Time 25): 19.26
serum concentration, Max ([2]; one 70 mg nasal dose, Time 25, in ng/mL): 66.12
serum concentration, Mean ([2]; one 70 mg nasal dose, Time 35): 33.35
serum concentration, Median ([2]; one 70 mg nasal dose, Time 35): 36.90
serum concentration, Min ([2]; one 70 mg nasal dose, Time 35): 15.09
serum concentration, Max ([2]; one 70 mg nasal dose, Time 35, in ng/mL): 51.52
serum concentration, Mean ([2]; one 70 mg nasal dose, Time 60): 20.41
serum concentration, Median ([2]; one 70 mg nasal dose, Time 60): 22.06
serum concentration, Min ([2]; one 70 mg nasal dose, Time 60): 8.89
serum concentration, Max ([2]; one 70 mg nasal dose, Time 60, in ng/mL): 31.10
serum concentration, Mean ([2]; one 70 mg nasal dose, Time 100): 13.91
serum concentration, Median ([2]; one 70 mg nasal dose, Time 100): 12.75
serum concentration, Min ([2]; one 70 mg nasal dose, Time 100): 6.20
serum concentration, Max ([2]; one 70 mg nasal dose, Time 100, in ng/mL): 23.24
serum concentration, Mean ([2]; one 70 mg nasal dose, Time 240): 5.90
serum concentration, Median ([2]; one 70 mg nasal dose, Time 240): 5.91
serum concentration, Min ([2]; one 70 mg nasal dose, Time 240): 1.48
serum concentration, Max ([2]; one 70 mg nasal dose, Time 240, in ng/mL): 11.01
serum concentration, Max ([2]; one 70 mg nasal dose, Time 370): 6.08 ng/mL
serum concentration, Mean ([2]; one 70 mg nasal dose, Time 370): 2.49
serum concentration, Median ([2]; one 70 mg nasal dose, Time 370): 2.51
serum concentration, Min ([2]; one 70 mg nasal dose, Time 370): 0.00
serum concentration, Max ([2]; one 70 mg nasal dose, Time 730): 3.17 ng/mL
serum concentration, Mean ([2]; one 70 mg nasal dose, Time 730): 0.76
serum concentration, Median ([2]; one 70 mg nasal dose, Time 730): 0.00
serum concentration, Min ([2]; one 70 mg nasal dose, Time 730): 0.00
serum concentration, Max [2, 5]: 1.2 ng/mL
serum concentration, Mean [2, 5]: 0.10
serum concentration, Median [2, 5]: 0.00
serum concentration, Min [2, 5]: 0.00
serum concentration, two 70 mg doses vs single 70 mg dose ([2]; second dose approximately 10 minutes after the first): raised the serum concentration of compound I above that observed with a single 70 mg dose
serum concentration, Mean [2, 6]: 85.77
serum concentration, Median [2, 6]: 91.42
serum concentration, Min [2, 6]: 17.16
serum concentration, Max ([2]; two 70 mg nasal doses, second approximately 10 minutes after first, Time 7, in ng/mL): 180.76
serum concentration, Mean [2, 7]: 73.20
serum concentration, Median [2, 7]: 77.41
serum concentration, Min [2, 7]: 15.37
serum concentration, Max ([2]; two 70 mg nasal doses, second approximately 10 minutes after first, Time 9, in ng/mL): 144.91
serum concentration, Mean [2, 8]: 65.97
serum concentration, Median [2, 8]: 65.18
serum concentration, Min [2, 8]: 14.49
serum concentration, Max ([2]; two 70 mg nasal doses, second approximately 10 minutes after first, Time 10.5, in ng/mL): 143.87
serum concentration, Mean [2, 9]: 96.77
serum concentration, Median [2, 9]: 102.11
serum concentration, Min [2, 9]: 15.52
serum concentration, Max ([2]; two 70 mg nasal doses, second approximately 10 minutes after first, Time 11.5, in ng/mL): 215.35
